# Values of other authors as cited in patent US20150132440A1, “DIPEPTIDE AND TRIPEPTIDE COMPOSITIONS AND USES” (4141 HOLDINGS, LLC, priority 2013, published 2015).
# Where a SMILES comes first, the peptide text is derived from it.
# How the values were obtained:
# Caco-2 cells = details: for inhibition of H2O2-induced IL-8 secretion: Caco-2 cells pretreated with amino acids (1, 2, and 5 mM) for 2 hours, then 1 mM H2O2 for 6 hours, ELISA
# L6 myotubes = details: for glucose uptake rate: L6 myotubes
# [1] = system: isolated skeletal muscles
# [2] = system: glucose transporter GLUT-4; details: compared with the other WPH components tested; for efficiency in translocating GLUT-4 to the PM: animal skeletal muscle
# Akt = details: supplementation
# [3] = ESR technique
# [4] = system: human dermal fibroblasts (HDFs); details: for protein expression levels of intracellular antioxidant enzymes SOD1, GSH and catalase: H2O2 stressed HDF cells; for H2O2 induced DNA damage / H2O2 induced ROS production / NF-κB activation: HDF cells
compound,measurement,setting,value
C[C@H](N)C(=O)O [Ala],GSH reductase activity,Caco-2 cells; Caco-2 cells,enhanced
same,inhibition of H2O2-induced IL-8 secretion,Caco-2 cells,inhibition of H2O2-induced IL-8 secretion from Caco-2 cells was observed
CN(C)CCCn1cc(C2=C(c3c[nH]c4ccccc34)C(=O)NC2=O)c2ccccc21 [GF109203X],stimulation of glucose uptake by Ile-Leu under inhibitor treatment,L6 myotubes; L6 cells,completely inhibited
same,stimulation of glucose uptake by Ile-Leu under inhibitor treatment,[1]; isolated muscles,completely inhibited
N[C@@H](Cc1c[nH]cn1)C(=O)O [His],GSH S-transferase (GST) activity,Caco-2 cells; Caco-2 cells,increases
same,inhibition of H2O2-induced IL-8 secretion,Caco-2 cells,inhibition of H2O2-induced IL-8 secretion from Caco-2 cells was observed
"CC[C@H](C)[C@H](N)C(=O)O [Ile, L-isoleucine]",GSH S-transferase (GST) activity,Caco-2 cells; Caco-2 cells,elevated
same,catalase activity,Caco-2 cells; Caco-2 cells,elevated
same,inhibition of H2O2-induced IL-8 secretion,Caco-2 cells,inhibition of H2O2-induced IL-8 secretion from Caco-2 cells was observed
same,efficiency in translocating GLUT-4 to the PM,[2],greater efficiency
same,efficiency of increasing glucose capture by skeletal muscle,[2],greater efficiency
"CC[C@H](C)[C@H](N)C(=O)N[C@H](C(=O)O)[C@@H](C)CC [Ile-Ile, L-Isoleucyl-L-isoleucine] (H-Ile-Ile-OH)",glucose uptake rate,L6 myotubes,significant stimulation
"CC[C@H](C)[C@H](N)C(=O)N[C@@H](CC(C)C)C(=O)O [Ile-Leu, L-Isoleucyl-L-Leucine] (H-Ile-Leu-OH)",glucose uptake rate,L6 myotubes,significant stimulation
same,glycogen contents,[1]; isolated muscles,increased
same,glucose uptake,[1]; isolated skeletal muscles,stimulated
CC[C@H](C)[C@H](NC(=O)[C@@H](N)CC(C)C)C(=O)O [L-Leucyl-L-isoleucine] (H-Leu-Ile-OH),efficiency in translocating GLUT-4 to the PM,[2],greater efficiency
same,efficiency of increasing glucose capture by skeletal muscle,[2],greater efficiency
same,activation of Akt,Akt,activation
"CC(C)C[C@H](N)C(=O)O [Leu, L-leucine]",GSH S-transferase (GST) activity,Caco-2 cells; Caco-2 cells,elevated
same,catalase activity,Caco-2 cells; Caco-2 cells,elevated
same,inhibition of H2O2-induced IL-8 secretion,Caco-2 cells,inhibition of H2O2-induced IL-8 secretion from Caco-2 cells was observed
"CC(C)C[C@H](NC(=O)[C@@H](N)CC(C)C)C(=O)O [Leu-Leu, L-Leucyl-L-leucine]",glucose uptake rate,L6 myotubes,significant stimulation
NCCCC[C@H](N)C(=O)O [Lys],GSH S-transferase (GST) activity,Caco-2 cells; Caco-2 cells,increases
same,inhibition of H2O2-induced IL-8 secretion,Caco-2 cells,inhibition of H2O2-induced IL-8 secretion from Caco-2 cells was observed
N[C@@H](Cc1c[nH]c2ccccc12)C(=O)O [Trp],GSH S-transferase (GST) activity,Caco-2 cells; Caco-2 cells,increases
same,inhibition of H2O2-induced IL-8 secretion,Caco-2 cells,inhibition of H2O2-induced IL-8 secretion from Caco-2 cells was observed
"CC(C)[C@H](N)C(=O)O [Val, valine]",GSH S-transferase (GST) activity,Caco-2 cells; Caco-2 cells,elevated
same,catalase activity,Caco-2 cells; Caco-2 cells,elevated
same,inhibition of H2O2-induced IL-8 secretion,Caco-2 cells,inhibition of H2O2-induced IL-8 secretion from Caco-2 cells was observed
Ile-Val,glucose uptake rate,L6 myotubes,significant stimulation
Leu-Val,glucose uptake rate,L6 myotubes,significant stimulation
SPP-1: peptide QLGNLGV derived from seaweed pipefish Syngnathus schlegeli,hydroxyl radical scavenging activity,[3],significant
same,"protein expression levels of intracellular antioxidant enzymes SOD1, GSH and catalase",[4],increase
same,H2O2 induced DNA damage,[4],effectively suppressed
same,H2O2 induced ROS production,[4],effectively suppressed
same,NF-κB activation,[4],block
SPP-2: peptide SVMPVVA derived from seaweed pipefish Syngnathus schlegeli,hydroxyl radical scavenging activity,[3],significant
same,"protein expression levels of intracellular antioxidant enzymes SOD1, GSH and catalase",[4],increase
same,H2O2 induced DNA damage,[4],effectively suppressed
same,H2O2 induced ROS production,[4],effectively suppressed
same,NF-κB activation,[4],block
Val-Leu,glucose uptake rate,L6 myotubes,significant stimulation
